Source: patent publication US11679097B2, “Combination product containing limonoid compound and biguanide compound” (ZHEJIANG YANGSHENGTANG INSTITUTE OF NATURAL MEDICATION CO., …, priority 2017, dated 2023)

Tests used:
ICR mice = test: Body weight, triglycerides and total cholesterol in obesity mouse model (Example 6); type: in vivo; settings: high-fat feed ICR mice, single administration 0.1 g/kg per day by gavage, two weeks
From the text: Effects of a Limonoid Compound, Metformin or a Combination Thereof on Body Weight, Triglycerides, and Total Cholesterol in an Obesity Mouse Model
In this example, ICR mice were used to complete the experiment for evaluation of lipid lowering and weight loss in animals (body weight, serum cholesterol, and serum triglycerides).
In this example, the limonoid compound was nomilin, and a metformin single administration group, nomilin single administration group, and metformin/nomilin combination administration groups (dose A and B groups) were set, respectively.
Conditions of experimental feeding: ICR mice, purchased from the Animal Center of Zhejiang Academy of Medical Sciences, half male and half female, body weight (20±2 g), fed with basic feed provided by the Animal Center of Zhejiang Medical Academy. It should be noted that the conditions for raising the mice were as follows: the temperature was 23±1° C., the humidity was 55±10%, the lights were turned on between 7 am and 7 pm (the lights were turned off at other time), and the mice were allowed to access to water and feed freely. The daily feeding and management of the animals were under the responsibility of the animal security department, which provided the animals with sufficient padding and fresh drinking water daily.
The ICR mice were randomly divided into the normal group and the high-fat feed group, according to body weight. The normal group was fed with ordinary feed from the beginning to the end of the experiment.
Gavage dose: nomilin at a dose of 0.1 g/kg was gavaged per day for the nomilin group, metformin at a dose of 0.1 g/kg was gavaged per day for the metformin group, nomilin at a dose of 0.05 g/kg and metformin at a dose of 0.05 g/kg were simultaneously gavaged per day for the combination dose group A, nomilin at a dose of 0.1 g/kg and metformin at a dose of 0.1 g/kg were simultaneously gavaged per day for the combination dose group B, the gavage volume was 10 mL/kg, and the normal group and the model group were administrated with 10 mL/kg of distilled water. Two weeks later, the mice were weighed, blood sampled from orbital cavity, measured to determine serum total cholesterol and triglyceride levels, and the average values of each group were obtained. SPSS 16.0 software was used for statistical analysis. The data were expressed as mean and standard deviation. The data before and after were analyzed by t-test, and P<0.05 was considered statistically significant.

db/db mice = test: Blood glucose and insulin in mouse model of type II diabetes (Example 4); type: in vivo; settings: single administration 0.2 g/kg per day by gavage, two weeks
From the text: Effects of a Limonoid Compound, Metformin or a Combination Thereof on Blood Glucose and Insulin in a Mouse Model of Type II Diabetes
In the present embodiment, the limonoid compound selected nomilin, deacetylnomilin, nomilin acid, deactylnomilin 17-β-D-glucopyranoside, and a nomilin single administration group, deacetylnomilin single administration group, nomilin acid single administered group, deactylnomilin 17-β-D-glucopyranoside single administration group, and combination thereof with metformin administration groups were set, respectively.
Conditions for experimental feeding: as type II diabetes model mice, 6-week-old SPF-grade db/db mice were purchased from the Nanjing Model Biology Institute, and subjected to experimental feeding after 7 days of preliminary feeding. It should be noted that the conditions for raising the mice were as follows: the temperature was 23±1° C., the humidity was 55±10%, the lights were turned on between 7 am and 7 pm (the lights were turned off at other time), and the mice were allowed to access to water and feed freely. The experimental feed was mouse growth-stable feed (GB M2118), and the daily feeding and management of the animals were under the responsibility of the animal security department, which provided the animals with sufficient padding and fresh drinking water daily.
Experimental grouping: male db/db mice (20±2 g) were selected, 18 male mice in each group were tested, and drinking bottles were sterilized weekly. The experimental groups included the normal control group (db/m, n=18), the model group (db/db, n=18), the nomilin group (db/db, n=18), the deacetylnomilin group (db/db, n=18), the nomilin acid group (db/db, n=18), the deactylnomilin 17-β-D-glucopyranoside group (db/db, n=18), the metformin group (db/db, n=18), the nomilin/metformin combination group (db/db, n=18), the deacetylnomilin/metformin combination group (db/db, n=18), the nomilin acid/metformin combination group (db/db, n=18), the deactylnomilin 17-β-D-glucopyranoside/combination group (db/db, n=18).
Gavage doses: nomilin at a dose of 0.2 g/kg was gavaged per day for the nomilin group, deacetylnomilin at a dose of 0.2 g/kg was gavaged per day for the deacetylnomilin group, nomilin acid at a dose of 0.2 g/kg was gavaged per day for the nomilin acid group, deacetylnomilin […] at a dose of 0.2 g/kg was gavaged per day for the deactylnomilin glucopyranoside group, metformin at a dose of 0.2 g/kg was gavaged per day for the metformin group, nomilin at a dose of 0.1 g/kg and metformin at a dose of 0.1 g/kg were simultaneously gavaged per day for the nomilin/metformin combination group, nomilin acid at a dose of 0.1 g/kg and metformin at a dose of 0.1 g/kg were simultaneously gavaged per day for the nomilin acid/metformin combination group, deacetylnomilin at a dose of 0.1 g/kg and metformin at a dose of 0.1 g/kg were simultaneously gavaged per day for the deacetylnomilin/metformin combination group, deactylnomilin 17-β-D-glucopyranoside at a dose of 0.1 g/kg and metformin at a dose of 0.1 g/kg were simultaneously gavaged per day for the deactylnomilin 17-β-D-glucopyranoside/metformin combination group, the gavage volume was 10 mL/kg, and the normal group and the model group were administrated with 10 mL/kg of distilled water. Two weeks later, the blood glucose values were measured by tail trimming method (Johnson's blood glucose meter) 1 h after the last administration, and serum insulin levels were measured with blood collected from orbital cavity by enzyme-linked immunosorbent assay (Elisa), and the average of each group was obtained. SPSS 16.0 software was used for statistical analysis. The data were expressed as mean and standard deviation. The data before and after were analyzed by t-test, and P<0.05 was considered statistically significant.

CN(C)C(=N)NC(=N)N [Metformin, N,N-dimethylimidodicarbonimidic diamide, reference compound]
Body weight gaining rate (ICR mice): 11.56% | Total cholesterol (ICR mice; serum): 3.35 ± 0.07 mmol/L | Triglycerides (ICR mice; serum): 1.17 ± 0.30 mmol/L | Insulin (db/db mice; serum, Elisa): 8.19 ± 2.10 pg/mL | Blood glucose value (db/db mice; 1 h after last administration): 12.2 ± 3.6 mmol/L
